From the NIST ThermoML archive (doi:10.1016/j.jct.2012.06.023)

Experiment: xn = mol fraction of the nth substance listed
Details: for surface tension liquid-gas: Wilhelmy plate; for viscosity: 101 kPa, Liquid, Concentric cylinders viscometry

CCCCCO [pentan-1-ol] + CN(C)C=O
Details	surface tension liquid-gas, 298.15 K [mN/m]	surface tension liquid-gas, 303.15 K [mN/m]	surface tension liquid-gas, 308.15 K [mN/m]	surface tension liquid-gas, 313.15 K [mN/m]	viscosity, 298.15 K [mPa·s]	viscosity, 303.15 K [mPa·s]	viscosity, 308.15 K [mPa·s]	viscosity, 313.15 K [mPa·s]
x2 = 0	24.55	23.6	22.54	21.94	3.5	3.051	2.664	2.335
x2 = 0.0793	24.71	23.72	22.64	22	2.973	2.585	2.259	1.98
x2 = 0.2866	25.53	24.43	23.31	22.57	1.863	1.608	1.414	1.24
x2 = 0.4261	26.4	25.25	24.11	23.3	1.395	1.205	1.069	0.9427
x2 = 0.5048	27.02	25.85	24.69	23.84	1.241	1.076	0.962	0.8525
x2 = 0.6254	28.21	27.01	25.84	24.94	1.069	0.939	0.8498	0.7611
x2 = 0.6638	28.68	27.48	26.31	25.4	1.021	0.9012	0.8193	0.7366
x2 = 0.7952	30.84	29.66	28.51	27.56	0.9068	0.8182	0.7558	0.6895
x2 = 0.8706	32.34	31.19	30.05	29.08	0.8572	0.797	0.7501	0.6882
x2 = 0.9363	33.8	32.67	31.56	30.58	0.8373	0.783	0.7386	0.6836
